US11564986B2, “Approach for treatment of cancer via immunomodulation by using talabostat” (ONKOSXCEL THERAPEUTICS, LLC, priority 2015, dated 2023)

How the values were obtained:
melanoma = details: monotherapy or combination; cited from earlier work
CT26 tumor cells = assay: Immunophenotyping of CT26 tumor samples by quantitative PCR (NK cells, perforin, granzyme B, Tregs); format: in vivo; details: CT26, day 7 after first dosing; Talabostat 20 μg/mouse qd, PD-1 antagonist 5 mg/kg
Protocol: Mice (Balb/c) corresponding to 20±2 g weight, received food and water ad libitum. The study protocol, the procedures involving the care and use of animals were reviewed and approved by the Institutional Animal Care and Use Committee (IACUC) to ensure compliance with the regulations of the Association for Assessment and Accreditation of Laboratory Animal Care (AAALAC).
Tumor Model The CT26 tumor cells were cultured in RPMI1640 medium supplemented with 10% heat inactivated fetal bovine serum, 100 U/ml penicillin and 100 μg/ml streptomycin, at 37° C. in an incubator of 5% CO2. The tumor cells were routinely subcultured three times per week. The cells growing in an exponential growth phase were harvested and counted for tumor inoculation. […]
The immuno-modulatory effect of the single dose (20 μg/mouse qd) administration of Talabostat alone and in combination with PD-1 antagonist (5 mg/kg), at various dose schedules was analysed by collecting the blood and the tumor samples 7 days after the first dosing the mice.
Tumor RNA samples were extracted from the frozen tumor tissues using the Trizol reagent. […] Quantitative PCR were conducted using a master mix from Invitrogen (Cat. #4309155) on an ABI 7900HT Fast Real-Time PCR System. The results were analyzed using a Delta Delta Ct method. […]

[1] = system: pancreatic and lung cancer; details: Talabostat alone or with cytokine or chemotherapeutic agents; cited from earlier work
[2] = in vivo; cited from earlier work
[3] = system: MC38 mouse colon cancer cell line; assay: Antitumor effect in MC38 mouse model of colon adenocarcinoma (tumor volume, tolerability; Study 1 and Study 2); format: in vivo
Excerpt: Six to seven-week-old female C57BL/6 mice were used in the studies. Mice received food and water ad libitum. The study protocol, the procedures involving the care and use of animals were reviewed and approved by the Institutional Animal Care and Use Committee (IACUC) to ensure compliance with the regulations of the Association for Assessment and Accreditation of Laboratory Animal Care (AAALAC).
MC38 mouse colon cancer cell line was provided by GenScript. The tumor cells were maintained as monolayer culture in DMEM supplemented with 10% fetal bovine serum (FBS), 1% Glutamax® and 1% Penicillin-Streptomycin at 37° C. in an atmosphere with 5% CO2. The cells were routinely subcultured every 2 days to maintain growth at exponential phase. The tumor cells growing in exponential growth phase were harvested by trypsinization, followed by centrifugation at 335×g relative centrifugal force (RCF) in a centrifuge. The supernatant was subsequently removed by aspiration. Cell pellet was resuspended in approximately 10× volume of cell culture medium and counted. The cell suspension was centrifuged again and processed as above and finally resuspended in HBSS−/− at a density of 1×10^7 cells per ml. Cell viability was determined to be 95% by trypan blue staining. Cell suspensions were implanted in the subcutaneous space of the flank of mice of female C57BL/6 mice (2.0×10^6 MC-38 cells in 0.2 mL Hanks Balanced Salt Solution). Mice were inoculated subcutaneously in the right lower flank (near the dorsal thigh region) with a single volume of 0.1 ml cell suspension containing about 1×10^6 cells.
Tumor size was measured twice per week in 2 dimensions using a caliper (recorded up to one decimal point). Tumor volume, expressed in mm^3, was calculated using the following formula, in which “a” and “b” were the long and the short diameters of a tumor, respectively. V (mm^3)=(a×b^2)/2
Animals were weighed and randomized into treatment groups when the mean tumor size was around 120 mm^3 on Day 0.
Data related to tumor volume, tumor weight, and body weight were presented as mean and the standard error of the mean (SEM). Statistical analyses were conducted using Student's t-test. P<0.05 was considered statistically significant. * and ** indicate P<0.05 and P<0.01, respectively.
The antitumor effect of single dose (qd) as well as twice daily (bid) administration of Talabostat alone and in combination with PD-1 antagonist at various dose schedules was evaluated in MC-38 (murine colon) tumor bearing mice. After the tumors were established, mice were sorted into various groups with a mean tumor volume of ˜200 mm^3. The test article and antibody were administered according to the dosing schedules described in Tables 5 and 6.

Compound	Response rate in melanoma patients (melanoma) [%]	NK cell activation, perforin (Pfr1) release in tumor (relative mRNA) (CT26 tumor cells)	Primary and secondary endpoints in clinical trials [1]	Most common adverse events [2]	Mean (±SEM) tumor volume ([3]; Study 1, MC38, Day 13, Talabostat 10 μg twice daily p.o.)	Mean (±SEM) tumor volume ([3]; Study 1, MC38, Day 13, Talabostat 20 μg twice daily p.o.)	Antitumor effect compared with the vehicle control group ([3]; Study 1, MC38, single treatment groups)	Mean (±SEM) tumor volume ([3]; Study 2, MC38, Day 11, Talabostat 2.5 μg BID p.o.)	Mean (±SEM) tumor volume ([3]; Study 2, MC38, Day 11, Talabostat 5 μg BID p.o.)	Mean (±SEM) tumor volume ([3]; Study 2, MC38, Day 11, Talabostat 10 μg BID p.o.)	Mean (±SEM) tumor volume ([3]; Study 2, MC38, Day 11, Talabostat 20 μg QD p.o.)
Nivolumab: anti-PD-1 antibody, CAS Registry Number 946414-94-4	32										
CC(C)[C@H](N)C(=O)N1CCC[C@H]1B(O)O [Talabostat, [(2R)-I-I [(2S)-2-amino-3-methyl-1-oxobutyl]-2-pyrrolidinyl] boronic acid]		activation in terms of release of perforin	unable to meet primary as well as secondary endpoints	edema/peripheral swelling, hypotension, hypovolemia, and dizziness	1.66 (±0.48) cc	1.30 (±0.42) cc	significant better effect	3.2 (±0.48) cc	2.9 (±0.42) cc	2.9 (±0.18) cc	2.0 (±0.43) cc
Ipilimumab: CTLA-4 antagonist; human monoclonal antibody, CAS No. 477202-00-9	11										
